Values joined by “and” are separate entries in the source; they are usually repeats but may differ in a detail not shown here. Equal entries are not always repeated. Toxic doses and inconclusive results are not listed. How the source made its calls: active means survival T/C of 150% or more; inactive means T/C below 125% in these data.
Tested on: P388 leukemia ip, CD2F1 mice, survival T/C
Test: NCI In Vivo Anticancer Drug Screen. Data for tumor model P388 Leukemia (intraperitoneal) in CD2F1 (CDF1) mice
Conditions: endpoint: median survival time, higher = longer survival
Outline: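 Mice carrying the transplanted tumor received test compound or vehicle. Survival was recorded in each group, and the value is the treated-group measurement divided by that of the vehicle-treated control group.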

[1] = dose: 50.0 mg/kg/injection, schedule: Q01DX009 (ip), vehicle: saline
[2] = dose: 100.0 mg/kg/injection, schedule: Q01DX009 (ip), vehicle: saline
[3] = dose: 200.0 mg/kg/injection, schedule: Q01DX009 (ip), vehicle: saline
[4] = dose: 100.0 mg/kg/injection, schedule: Q01DX009 (ip), vehicle: saline with Tween-80
[5] = dose: 200.0 mg/kg/injection, schedule: Q01DX009 (ip), vehicle: saline with Tween-80
[6] = dose: 12.5 mg/kg/injection, schedule: Q01DX009 (ip), vehicle: saline
[7] = dose: 25.0 mg/kg/injection, schedule: Q01DX009 (ip), vehicle: saline
[8] = dose: 60.0 mg/kg/injection, schedule: Q01DX005 (ip), vehicle: saline with Tween-80
[9] = dose: 120.0 mg/kg/injection, schedule: Q01DX005 (ip), vehicle: saline with Tween-80
[10] = dose: 240.0 mg/kg/injection, schedule: Q01DX005 (ip), vehicle: saline with Tween-80
[11] = dose: 12.5 mg/kg/injection, schedule: Q01DX009 (ip), vehicle: Klucel (hydroxypropylcellulose) (HPC)
[12] = dose: 25.0 mg/kg/injection, schedule: Q01DX009 (ip), vehicle: Klucel (hydroxypropylcellulose) (HPC)
[13] = dose: 25.0 mg/kg/injection, schedule: Q04DX003 (ip), vehicle: saline with Tween-80
[14] = dose: 50.0 mg/kg/injection, schedule: Q01DX009 (ip), vehicle: Klucel (hydroxypropylcellulose) (HPC)
[15] = dose: 50.0 mg/kg/injection, schedule: Q04DX003 (ip), vehicle: saline with Tween-80
[16] = dose: 100.0 mg/kg/injection, schedule: Q04DX003 (ip), vehicle: saline with Tween-80
[17] = dose: 200.0 mg/kg/injection, schedule: Q04DX003 (ip), vehicle: saline with Tween-80
[18] = dose: 50.0 mg/kg/injection, schedule: Q01DX005 (ip), vehicle: Klucel (hydroxypropylcellulose) (HPC)
[19] = dose: 100.0 mg/kg/injection, schedule: Q01DX005 (ip), vehicle: Klucel (hydroxypropylcellulose) (HPC)
[20] = dose: 200.0 mg/kg/injection, schedule: Q01DX005 (ip), vehicle: Klucel (hydroxypropylcellulose) (HPC)
[21] = dose: 25.0 mg/kg/injection, schedule: Q01DX009 (ip), vehicle: saline with Tween-80
[22] = dose: 50.0 mg/kg/injection, schedule: Q01DX009 (ip), vehicle: saline with Tween-80

Measured: T/C

COC(=O)C[n+]1ccc2ccccc2c1
inactive: [1] 99 % of control | [2] 99 % of control | [3] 95 % of control

O=c1cccc(Cl)[nH]1
inactive: [4] 100 % of control | [5] 95 % of control | dose: 400.0 mg/kg/injection, schedule: Q01DX009 (ip), vehicle: saline with Tween-80 100 % of control

FC(F)(F)c1cccc(NC(=S)SCc2ccc(Cl)c(Cl)c2)c1
inactive: [6] 95 % of control | [7] 89 % of control | [1] 90 % of control | dose: 50.0 mg/kg/injection, schedule: Q01DX009 (ip), vehicle: suspension in saline 89 % of control | [2] 90 % of control | [3] 100 % of control | dose: 200.0 mg/kg/injection, schedule: Q01DX009 (ip), vehicle: suspension in saline 97 % of control

COc1nc(NC2OCC(O)C(O)C2O)c(Cl)c(=O)n1C (centres undefined)
inactive: [8] 93 % of control | [9] 90 % of control | [10] 100 % of control

CCOC(=O)COc1ccc(C2=C(c3ccccc3)C(C)(C)Oc3cc(OC)ccc32)cc1[N+](=O)[O-]
inactive: dose: 50.0 mg/kg/injection, schedule: Q01DX005 (ip), vehicle: saline with Tween-80 97 % of control | dose: 100.0 mg/kg/injection, schedule: Q01DX005 (ip), vehicle: saline with Tween-80 93 % of control | dose: 200.0 mg/kg/injection, schedule: Q01DX005 (ip), vehicle: saline with Tween-80 86 % of control

NNS(=O)(=O)CCC(NC(=O)OCc1ccccc1)C(=O)OCc1ccccc1 (centres undefined)
inactive: dose: 12.5 mg/kg/injection, schedule: Q01DX009 (ip), vehicle: other 98 % of control | dose: 25.0 mg/kg/injection, schedule: Q01DX009 (ip), vehicle: other 103 % of control | dose: 50.0 mg/kg/injection, schedule: Q01DX009 (ip), vehicle: other 94 % of control | dose: 100.0 mg/kg/injection, schedule: Q01DX009 (ip), vehicle: other 94 % of control | dose: 200.0 mg/kg/injection, schedule: Q01DX009 (ip), vehicle: other 98 % of control

O=S(=O)(F)c1ccc(Cl)cc1C[P+](c1ccccc1)(c1ccccc1)c1ccccc1
inactive: dose: 25.0 mg/kg/injection, schedule: Q01DX001 (ip), vehicle: Klucel (hydroxypropylcellulose) (HPC) 115 % of control and 120 % of control

C[N+]1(C)CCC(OC(=O)C(O)(c2ccccc2)C2CCCC2)C1 (centres undefined)
inactive: [11] 95 % of control | [12] 97 % of control | [13] 105 % of control | [14] 89 % of control and 95 % of control | [15] 102 % of control | [16] 99 % of control

CCCCCCCCCCCCCCCCCc1cccc(O)c1
inactive: [11] 114 % of control | [12] 103 % of control | [14] 114 % of control

C/C(=N\N=C(\[Se])N1CCN(c2ccccn2)CC1)c1ccccn1
inactive: dose: 12.5 mg/kg/injection, schedule: Q04DX003 (ip), vehicle: saline with Tween-80 108 % of control | [13] 109 % of control and 116 % of control | [15] 113 % of control | [16] 115 % of control and 124 % of control | [17] 115 % of control

Oc1ccc(N=Nc2ccc3c4c(cccc24)-c2ccccc2-3)c2cccnc12
inactive: [14] 99 % of control | dose: 100.0 mg/kg/injection, schedule: Q01DX009 (ip), vehicle: Klucel (hydroxypropylcellulose) (HPC) 102 % of control | dose: 200.0 mg/kg/injection, schedule: Q01DX009 (ip), vehicle: Klucel (hydroxypropylcellulose) (HPC) 114 % of control

Cc1nn(C)cc1P(=O)(c1ccccc1)c1ccccc1
inactive: [18] 98 % of control | [19] 96 % of control

O=C1c2ccccc2SC[C@@H]2CCCN12
inactive: dose: 60.0 mg/kg/injection, schedule: Q01DX005 (ip), vehicle: saline 101 % of control | dose: 120.0 mg/kg/injection, schedule: Q01DX005 (ip), vehicle: saline 99 % of control | dose: 240.0 mg/kg/injection, schedule: Q01DX005 (ip), vehicle: saline 99 % of control

CC1C(c2ccccc2)NC(c2ccccc2)CC1(N)C#N (centres undefined)
inactive: [18] 95 % of control | [19] 95 % of control | [20] 93 % of control

C=C1C(=O)O[C@H]2[C@H]1[C@H](OC(=O)/C(C)=C\C)CC(=C)[C@@H]1[C@H](O)[C@H]3O[C@@]3(C)[C@@]12O
inactive: dose: 6.25 mg/kg/injection, schedule: Q01DX009 (ip), vehicle: saline 102 % of control | [6] 106 % of control and 111 % of control | [7] 112 % of control and 113 % of control | [1] 121 % of control | [2] 109 % of control

Nc1cccc(CCCCc2cccc(S(=O)(=O)F)c2)c1
inactive: dose: 50.0 mg/kg/injection, schedule: Q01DX009 (ip), vehicle: saline sonified 100 % of control | dose: 100.0 mg/kg/injection, schedule: Q01DX009 (ip), vehicle: saline sonified 109 % of control | dose: 200.0 mg/kg/injection, schedule: Q01DX009 (ip), vehicle: saline sonified 109 % of control

CCN(CC)c1nc(Cl)nc(NC(C)C)n1
inactive: [16] 100 % of control | [17] 95 % of control

COC1CCC2=C(C1)C(=O)CC1c3ccccc3CN21 (centres undefined)
inactive: dose: 12.5 mg/kg/injection, schedule: Q01DX009 (ip), vehicle: saline with Tween-80 100 % of control | [21] 100 % of control | [22] 100 % of control

CCOC(=O)\C(C#N)=C/C=C/C(C)=C/Nc1ccc([N+](=O)[O-])cc1[N+](=O)[O-]
inactive: [18] 91 % of control | [19] 91 % of control | [20] 102 % of control

CC(C)(C)/[N+]([O-])=C/C(c1ccccc1)C(/C=[N+](/[O-])C(C)(C)C)c1ccccc1 (centres undefined)
inactive: [8] 100 % of control | [9] 98 % of control | [10] 98 % of control

c1ccc2c(c1)Cc1c(-c3noc4c3Cc3ccccc3-4)noc1-2
inactive: dose: 60.0 mg/kg/injection, schedule: Q01DX005 (ip), vehicle: Klucel + Tween-80 100 % of control | dose: 120.0 mg/kg/injection, schedule: Q01DX005 (ip), vehicle: Klucel + Tween-80 90 % of control | dose: 240.0 mg/kg/injection, schedule: Q01DX005 (ip), vehicle: Klucel + Tween-80 91 % of control

CC(=O)Nc1nc(C(C)(C)C)c([N+](=O)[O-])s1
inactive: [22] 95 % of control | [4] 104 % of control | [5] 95 % of control

Cn1c2ncccc2c(=O)c2c(O)cc3c(c21)C=CC(C)(C)O3
inactive: dose: 12.5 mg/kg/injection, schedule: Q01DX005 (ip), vehicle: Klucel (hydroxypropylcellulose) (HPC) 100 % of control | dose: 25.0 mg/kg/injection, schedule: Q01DX005 (ip), vehicle: Klucel (hydroxypropylcellulose) (HPC) 102 % of control | [18] 101 % of control and 93 % of control

N/C(=N\O)N(c1ccccc1)c1ccccc1
inactive: [21] 97 % of control | [22] 98 % of control | [4] 99 % of control

CCN(CCO)CC(O)Cn1cnc2c(N)ncnc21 (centres undefined)
inactive: dose: 60.0 mg/kg/injection, schedule: Q01DX005 (ip), vehicle: Klucel (hydroxypropylcellulose) (HPC) 95 % of control | dose: 120.0 mg/kg/injection, schedule: Q01DX005 (ip), vehicle: Klucel (hydroxypropylcellulose) (HPC) 94 % of control | dose: 240.0 mg/kg/injection, schedule: Q01DX005 (ip), vehicle: Klucel (hydroxypropylcellulose) (HPC) 97 % of control

Source: PubChem BioAssay AID330 (DTP/NCI, 2004)
